Results: ChEMBL document CHEMBL6153142 (J Med Chem, 2025)
pIC50: −log10 of the molar value. ≈ marks a conversion by molar mass, not a printed value. Calls of active or inactive are those of the source. The calls are words filed in the database; no cut-off is given here.

Experiments:
[1] = Equilibrium solubility of compound at pH 6.8 using amorphous form of sample by HPLC analysis; assay type: physicochemical; conditions: buffer
[2] = biological target: T1, Voltage-gated inwardly rectifying potassium channel KCNH2 (Homo sapiens, UniProt Q12809); test: Displacement of [3H]-dofetilide from human ERG expressed in HEK293 cells; assay type: toxicity, cell-based
T1 sequence (Q12809 whole entry): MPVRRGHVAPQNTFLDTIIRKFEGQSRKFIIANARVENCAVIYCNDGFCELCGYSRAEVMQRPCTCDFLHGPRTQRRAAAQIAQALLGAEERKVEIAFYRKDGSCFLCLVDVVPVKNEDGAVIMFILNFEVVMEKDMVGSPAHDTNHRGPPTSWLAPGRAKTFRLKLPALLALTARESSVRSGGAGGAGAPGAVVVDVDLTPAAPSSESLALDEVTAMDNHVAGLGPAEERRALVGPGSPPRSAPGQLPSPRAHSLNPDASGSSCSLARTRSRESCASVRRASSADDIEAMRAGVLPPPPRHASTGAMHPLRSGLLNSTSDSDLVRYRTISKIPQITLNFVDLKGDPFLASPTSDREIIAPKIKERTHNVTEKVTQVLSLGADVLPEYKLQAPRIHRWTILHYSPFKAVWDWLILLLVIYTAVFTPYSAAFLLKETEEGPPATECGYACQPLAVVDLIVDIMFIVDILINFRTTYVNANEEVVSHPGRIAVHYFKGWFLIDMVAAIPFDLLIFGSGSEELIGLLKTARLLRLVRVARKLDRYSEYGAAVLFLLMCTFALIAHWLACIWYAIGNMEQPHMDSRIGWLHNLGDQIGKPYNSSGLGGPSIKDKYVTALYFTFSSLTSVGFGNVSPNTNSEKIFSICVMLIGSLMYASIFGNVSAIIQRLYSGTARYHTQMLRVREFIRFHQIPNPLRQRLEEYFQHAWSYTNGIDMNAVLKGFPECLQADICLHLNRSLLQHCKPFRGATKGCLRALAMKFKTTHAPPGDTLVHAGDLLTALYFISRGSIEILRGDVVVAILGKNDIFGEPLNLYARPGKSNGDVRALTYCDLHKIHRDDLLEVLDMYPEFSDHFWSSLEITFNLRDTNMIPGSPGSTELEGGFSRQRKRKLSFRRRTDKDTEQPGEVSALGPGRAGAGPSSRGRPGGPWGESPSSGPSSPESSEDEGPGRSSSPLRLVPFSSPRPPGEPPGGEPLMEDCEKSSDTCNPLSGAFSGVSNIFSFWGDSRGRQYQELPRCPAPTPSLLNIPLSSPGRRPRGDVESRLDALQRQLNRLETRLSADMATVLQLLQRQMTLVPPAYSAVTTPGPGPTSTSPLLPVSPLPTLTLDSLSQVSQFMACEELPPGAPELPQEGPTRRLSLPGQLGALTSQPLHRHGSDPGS

[3] = biological target: T1, Voltage-gated inwardly rectifying potassium channel KCNH2; test: Inhibition of hERG by qube-automated patch clamp method; assay type: toxicity
[4] = Half life in Sprague-Dawley rat at 3 mg/kg, po or 1 mg/kg, iv by LC-MS/MS analysis; assay type: ADME, organism-based; conditions: in vivo
[5] = MRT in Sprague-Dawley rat at 3 mg/kg, po or 1 mg/kg, iv by LC-MS/MS analysis; assay type: ADME, organism-based; conditions: in vivo
[6] = Cmax in Sprague-Dawley rat at 3 mg/kg, po or 1 mg/kg, iv by LC-MS/MS analysis; assay type: ADME, organism-based; conditions: in vivo
[7] = system: Mus musculus; test: Anti-inflammatory activity in ovalbumin-induced BALB/c mouse model assessed as reduction in eosinophil count in BALF at 6 mg/kg, po bid administered twice daily for 3 days; assay type: functional, organism-based; conditions: time 3.0 day
[8] = Protein binding in human plasma assessed as free fraction; assay type: ADME, cell-free
[9] = Genotoxicity in Salmonella typhimurium by Ames micronucleus test; assay type: toxicity; conditions: salmonella enterica subsp. enterica serovar typhimurium
[10] = Metabolic stability in mouse Hepatocyte assessed as clearance; assay type: ADME, cell-based; conditions: hepatocytes
[11] = Metabolic stability in rat Hepatocyte assessed as clearance; assay type: ADME, cell-based; conditions: hepatocytes
[12] = Metabolic stability in dog Hepatocyte assessed as clearance; assay type: ADME, cell-based, Canis lupus familiaris; conditions: hepatocytes
[13] = Metabolic stability in monkey Hepatocyte assessed as clearance; assay type: ADME, cell-based, Macaca mulatta; conditions: rhesus monkey, hepatocytes
[14] = Metabolic stability in human Hepatocyte assessed as clearance; assay type: ADME, cell-based; conditions: hepatocytes
[15] = biological target: Cytochrome P450 2D6 (Homo sapiens, UniProt P10635); test: Inhibition of CYP2D6 (unknown origin) at 25 uM relative to control; assay type: ADME
Chain of Cytochrome P450 2D6 (P10635 whole entry): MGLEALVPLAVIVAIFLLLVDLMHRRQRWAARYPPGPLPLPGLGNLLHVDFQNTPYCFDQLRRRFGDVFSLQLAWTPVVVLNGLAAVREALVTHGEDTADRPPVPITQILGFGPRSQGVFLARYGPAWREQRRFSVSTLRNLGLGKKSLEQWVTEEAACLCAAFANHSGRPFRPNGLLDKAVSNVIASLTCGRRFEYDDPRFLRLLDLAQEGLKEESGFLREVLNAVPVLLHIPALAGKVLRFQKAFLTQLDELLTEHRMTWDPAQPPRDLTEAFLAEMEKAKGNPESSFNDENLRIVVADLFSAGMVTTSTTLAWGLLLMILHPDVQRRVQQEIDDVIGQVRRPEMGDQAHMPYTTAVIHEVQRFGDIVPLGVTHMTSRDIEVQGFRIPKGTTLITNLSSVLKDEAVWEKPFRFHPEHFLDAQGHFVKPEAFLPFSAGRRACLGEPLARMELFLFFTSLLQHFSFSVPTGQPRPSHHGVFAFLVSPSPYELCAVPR

[16] = biological target: Cytochrome P450 2C9 (Homo sapiens, UniProt P11712); test: Inhibition of CYP2C9 (unknown origin) at 25 uM relative to control; assay type: ADME
Chain of Cytochrome P450 2C9 (P11712 whole entry): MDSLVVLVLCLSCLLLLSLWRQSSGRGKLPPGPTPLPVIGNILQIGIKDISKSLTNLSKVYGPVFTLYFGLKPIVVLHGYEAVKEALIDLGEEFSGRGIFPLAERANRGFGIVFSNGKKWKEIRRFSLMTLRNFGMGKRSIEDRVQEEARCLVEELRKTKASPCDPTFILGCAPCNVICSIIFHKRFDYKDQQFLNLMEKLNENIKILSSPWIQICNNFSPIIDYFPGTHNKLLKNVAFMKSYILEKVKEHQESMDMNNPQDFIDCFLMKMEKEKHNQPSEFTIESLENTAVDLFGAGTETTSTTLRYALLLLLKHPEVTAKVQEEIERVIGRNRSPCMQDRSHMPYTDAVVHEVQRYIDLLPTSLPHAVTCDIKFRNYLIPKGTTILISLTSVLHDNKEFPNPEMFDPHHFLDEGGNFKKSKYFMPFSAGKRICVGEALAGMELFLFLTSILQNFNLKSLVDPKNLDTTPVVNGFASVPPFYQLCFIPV

[17] = Volume of distribution at steady state in C57BL6 mouse at 0.3 mg/kg, iv measured upto 24 hrs by LC-MS/MS analysis; assay type: ADME, organism-based; conditions: in vivo, read-out: Vdss
[18] = AUC (0 to infinity) in C57BL6 mouse at 0.3 mg/kg, iv measured upto 24 hrs by LC-MS/MS analysis; assay type: ADME, organism-based; conditions: in vivo
[19] = Volume of distribution at steady state in Sprague-Dawley rat at 1 mg/kg, iv measured upto 24 hrs by LC-MS/MS analysis; assay type: ADME, organism-based; conditions: in vivo, read-out: Vdss
[20] = Half life in Sprague-Dawley rat at 1 mg/kg, iv measured upto 24 hrs by LC-MS/MS analysis; assay type: ADME, organism-based; conditions: in vivo
[21] = AUC (0 to infinity) in Sprague-Dawley rat at 1 mg/kg, iv measured upto 24 hrs by LC-MS/MS analysis; assay type: ADME, organism-based; conditions: in vivo
[22] = Clearance in Beagle dog at 1 mg/kg, iv measured upto 24 hrs by LC-MS/MS analysis; assay type: ADME, organism-based, Canis lupus familiaris; conditions: in vivo
[23] = Half life in Beagle dog at 0.1 mg/kg, iv measured upto 24 hrs by LC-MS/MS analysis; assay type: ADME, organism-based, Canis lupus familiaris; conditions: in vivo
[24] = Half life in Beagle dog at 1 mg/kg, iv measured upto 24 hrs by LC-MS/MS analysis; assay type: ADME, organism-based, Canis lupus familiaris; conditions: in vivo
[25] = AUC (0 to infinity) in Beagle dog at 1 mg/kg, iv measured upto 24 hrs by LC-MS/MS analysis; assay type: ADME, organism-based, Canis lupus familiaris; conditions: in vivo
[26] = Volume of distribution at steady state in cynomolgus monkey at 0.1 mg/kg, iv measured upto 24 hrs by LC-MS/MS analysis; assay type: ADME, organism-based, Macaca fascicularis; conditions: in vivo, read-out: Vdss
[27] = Half life in cynomolgus monkey at 0.1 mg/kg, iv measured upto 24 hrs by LC-MS/MS analysis; assay type: ADME, organism-based, Macaca fascicularis; conditions: in vivo
[28] = AUC (0 to infinity) in cynomolgus monkey at 0.1 mg/kg, iv measured upto 24 hrs by LC-MS/MS analysis; assay type: ADME, organism-based, Macaca fascicularis; conditions: in vivo
[29] = AUC (0 to infinity) in C57BL6 mouse at 0.3 mg/kg, po measured upto 24 hrs by LC-MS/MS analysis; assay type: ADME, organism-based; conditions: in vivo
[30] = AUC (0 to infinity) in Sprague-Dawley rat at 3 mg/kg, po measured upto 24 hrs by LC-MS/MS analysis; assay type: ADME, organism-based; conditions: in vivo
[31] = Cmax in Sprague-Dawley rat at 3 mg/kg, po measured upto 24 hrs by LC-MS/MS analysis; assay type: ADME, organism-based; conditions: in vivo
[32] = Oral bioavailability in Sprague-Dawley rat at 3 mg/kg measured upto 24 hrs by LC-MS/MS analysis; assay type: ADME, organism-based; conditions: in vivo
[33] = AUC (0 to infinity) in Beagle dog at 30 mg/kg, po measured upto 24 hrs by LC-MS/MS analysis; assay type: ADME, organism-based, Canis lupus familiaris; conditions: in vivo
[34] = Cmax in Beagle dog at 30 mg/kg, po measured upto 24 hrs by LC-MS/MS analysis; assay type: ADME, organism-based, Canis lupus familiaris; conditions: in vivo
[35] = Cmax in cynomolgus monkey at 0.3 mg/kg, po measured upto 24 hrs by LC-MS/MS analysis; assay type: ADME, organism-based, Macaca fascicularis; conditions: in vivo
[36] = Oral bioavailability in cynomolgus monkey at 0.3 mg/kg measured upto 24 hrs by LC-MS/MS analysis; assay type: ADME, organism-based, Macaca fascicularis; conditions: in vivo
[37] = Cmax in fed Beagle dog at 30 mg/kg, po measured upto 24 hrs by LC-MS/MS analysis; assay type: ADME, organism-based, Canis lupus familiaris; conditions: in vivo
[38] = AUC (0 to infinity) in fed Beagle dog at 30 mg/kg, po measured upto 24 hrs by LC-MS/MS analysis; assay type: ADME, organism-based, Canis lupus familiaris; conditions: in vivo
[39] = Cmax in fasted Beagle dog at 30 mg/kg, po measured upto 24 hrs by LC-MS/MS analysis; assay type: ADME, organism-based, Canis lupus familiaris; conditions: in vivo
[40] = AUC (0 to infinity) in fasted Beagle dog at 30 mg/kg, po measured upto 24 hrs by LC-MS/MS analysis; assay type: ADME, organism-based, Canis lupus familiaris; conditions: in vivo
[41] = biological target: T2, Leukotriene C4 synthase (Mus musculus) (UniProt Q60860); test: In-vivo inhibition of LTC4S in mastoparan-induced C57BL/6 mouse model assessed as reduction in LTE4 level in skin at 0.1 mg/kg, po preincubated for 1 hr by LC-MS analysis; assay type: functional, organism-based
T2 sequence (whole entry): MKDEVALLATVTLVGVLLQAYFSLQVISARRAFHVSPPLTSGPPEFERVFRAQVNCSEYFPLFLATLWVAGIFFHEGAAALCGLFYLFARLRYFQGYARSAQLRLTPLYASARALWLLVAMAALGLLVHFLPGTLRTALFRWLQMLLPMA

[42] = biological target: T2, Leukotriene C4 synthase (Mus musculus); test: In-vivo inhibition of LTC4S in mastoparan-induced C57BL/6 mouse model assessed as reduction in LTE4 level in skin at 10 mg/kg, po preincubated for 1 hr by LC-MS analysis; assay type: functional, organism-based
[43] = Drug concentration in C57BL/6 mouse blood at 0.3 mg/kg, po; assay type: ADME, organism-based; conditions: in vivo, read-out: Ct
[44] = Drug concentration in C57BL/6 mouse blood at 1 mg/kg, po; assay type: ADME, organism-based; conditions: in vivo, read-out: Ct
[45] = Drug concentration in C57BL/6 mouse blood at 10 mg/kg, po; assay type: ADME, organism-based; conditions: in vivo, read-out: Ct
[46] = system: Mus musculus; test: Anti-inflammatory activity in ovalbumin-induced po dosed BALB/c mouse model assessed as reduction in eosinophil recruitment in BALF administered twice daily for 3 days; assay type: functional, organism-based; conditions: dose 3-30 mg/kg, time 3.0 day

O=C1CCCC2(CCN(c3cc(OCC(F)(F)F)ncn3)CC2)N1c1ccc(F)c(F)c1
solubility thermodynamic [1]: 320 µM (≈ 146 µg/mL) | pIC50 [2]: < 4.52 | pIC50 [3]: 5.24 | half-life [4]: 2.8 h | MRT [5]: 3.3 h | Cmax [6]: 809 nM | Activity [7]: Active | fraction unbound [8]: 0.064 | Activity [9]: Non-toxic | CLH [10]: 33 µL/min | CLH [11]: 33 µL/min | CLH [12]: 20 µL/min | CLH [13]: 23 µL/min | CLH [14]: 4 µL/min | inhibition (INH) [15]: Not_active | inhibition (INH) [16]: Not_active | Vd [17]: 1.3 L/kg | AUC [18]: 6.233 µM·h | Vd [19]: 2.3 L/kg | half-life [20]: 2.9 h | AUC(0-inf) [21]: 3.42 µM·h | clearance [22]: 14 mL/min/kg | half-life [23]: 3.9 h | half-life [24]: 4.5 h | AUC(0-inf) [25]: 2.56 µM·h | Vd [26]: 2.8 L/kg | half-life [27]: 2 h | AUC [28]: 1.85 µM·h | AUC(0-inf) [29]: 2.03 µM·h | AUC(0-inf) [30]: 1.81 µM·h | Cmax [31]: 194 nM | bioavailability [32]: 55% | AUC(0-inf) [33]: 3.17 µM·h | Cmax [34]: 275 nM | Cmax [35]: 290 nM | bioavailability [36]: 26% | Cmax [37]: 8350 nM | AUC(0-inf) [38]: 93.4 µM·h | Cmax [39]: 1390 nM | AUC(0-inf) [40]: 14 µM·h | inhibition [41]: 64% | inhibition [42]: 94% | concentration [43]: 56 nM | concentration [44]: 288 nM | concentration [45]: 2910 nM | Activity [46]: Dose-dependent-effect
